The values below come from article PMC11433825, “Bidentate Substrate Binding Mode in Oxalate Decarboxylase” (Molecules, 2024).

Assay [1] concerns the target T1, Oxalate decarboxylase (OxDC) (Bacillus subtilis, UniProt O34714, W96F).
T1 construct: recombinant, C-terminal His6 tag kept, IPTG/heat-shock expression with MnCl2, Ni-NTA purified; Mn(II) in two cupin sites per subunit
The experiment in a line: X-band […] Mims ENDOR. As to conditions: labelled compound (13C), 50 mM; citrate pH 5.0, 50% glycerol, 10 mM ascorbate, 5 uM DTPA; 5 K; bidentate to N-terminal active-site Mn(II). Format: binding.

The target in assay [2] is T2, Oxalate decarboxylase (OxDC) (Bacillus subtilis, UniProt O34714).
T2 construct: recombinant, C-terminal His6 tag kept, IPTG/heat-shock expression with MnCl2, Ni-NTA purified; Mn(II) in two cupin sites per subunit
T2 sequence (O34714 whole entry): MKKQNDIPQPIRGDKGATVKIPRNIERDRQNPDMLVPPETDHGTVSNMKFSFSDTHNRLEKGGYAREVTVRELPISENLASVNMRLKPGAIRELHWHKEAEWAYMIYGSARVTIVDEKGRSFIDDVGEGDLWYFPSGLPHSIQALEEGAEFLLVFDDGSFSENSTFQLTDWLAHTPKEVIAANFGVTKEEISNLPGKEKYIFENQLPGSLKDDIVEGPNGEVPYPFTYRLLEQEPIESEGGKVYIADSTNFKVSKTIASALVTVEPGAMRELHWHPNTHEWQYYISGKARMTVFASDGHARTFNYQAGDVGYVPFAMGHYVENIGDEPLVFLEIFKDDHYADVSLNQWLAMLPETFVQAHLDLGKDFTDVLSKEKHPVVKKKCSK
The experiment in a line: X-band […] Mims ENDOR. It counts as binding. As to conditions: labelled compound (13C), 50 mM; Tris pH 8.5, 50% glycerol, 10 mM ascorbate, 5 uM DTPA; 5 K; bidentate to N-terminal active-site Mn(II).

Where a name gives a salt, the structure may show the parent alone.

T1 sequence (O34714 whole entry W96F): as the sequence (O34714 whole entry) above, with W96F counted along it

`O=C(O)C(=O)O` [^13C-labeled oxalate]: the “X-band 13C Mims ENDOR” value in assay [1] was “Mn(II) ion in the active site of the OxDC mutant W96F at low pH”; in assay [2], “bidentate binding of oxalate in WT OxDC at high pH where the enzyme is inactive”.
